Results taken from patent publication EP0141884A1, “Novel phenylpiperazine derivatives, process for preparing them and therapeutic compositions containing them” (JUSTE, S.A. QUIMICO-FARMACEUTICA, priority 1983, dated 1985).

System: female Swiss mice
Test: Analgesic activity, writhing test (2-phenyl-1,4-benzoquinone as nociceptive agent)
Assay type: in vivo
Conditions: Mus musculus, po, 1 h, Table 1, oral route one hour before i.p. 0.02% 2-phenyl 1-4 benzoquinone, dose reducing writhes by 50%
Experimental: The studies of analgesic activity for these compounds have been carried out over 2,178 mice by using the "writhing test" method. 2-Phenylbenzoquinone was used as nociceptive agent and the material under test was administered by the oral route. In all the cases the ED50, ED16 and ED84 (minimum dose for each product which reduces the writhes by 50, 16 and 84% respectively) were calculated, as well as the 95% confidence limits for the ED50. The oral acute toxicity study (LD50 determination) has been performed using 770 Swiss mice (half males and half females) weighing 18-22 g.
A slight modification of the method described by Hendershot and Forshait J. Pharmacol. Exp. Ther. 125, 237 (1959) which employs as nociceptive agent a 0.02% hydroalcoholic solution of 2-phenyl 1-4 benzoquinone, was used. 0.2 ml Of this solution was administered by the i.p. route at a constant temperature of 37° C. The administration of this substance produced in the animals abdominal writhes which were easy to count. The animals used were female Swiss mice of weight 20 + 2 g. […] The value of ED50 was calculated according to the method of Litchfield and Wilcoxon J. Pharmacol. Exp. Ther. 99, 96 (1949).

`CC(C)Cc1ccc(C(C)C(=O)O)cc1` (stereo not shown) [2(4-isobutylphenyl) propionic acid, reference compound] was tested, and the ED50 was 4.21 mg/kg.
